Data as given in patent publication US20040048834A1, “Antitumoral compounds” (priority 2000, published 2004).
pIC50: −log10 of the molar value. Where two headings read alike, the source gives them in different places.

Tests used:
Format in all cases: cell-based
[1] = system: Molt 3; test: Cytotoxicity MTS, leukemias/lymphomas, Molt 3; conditions: 4-Parameter Curve Fit, NA = not active, read-out: Cytotoxicity IC50 ALL (Acute lymphobalstic) Molt 3
[2] = system: Y-79; test: Cytotoxicity MTS, solid tumors, Retinoblastoma Y-79; conditions: 4-Parameter Curve Fit, NA = not active
[3] = system: NCI-H187; test: Cytotoxicity MTS, solid tumors, SCL NCI-H187; conditions: 4-Parameter Curve Fit, NA = not active
[4] = system: 786-O; test: Cytotoxicity MTS, solid tumors, Renal 786-O; conditions: 4-Parameter Curve Fit, NA = not active
[5] = system: MX-1; test: Cytotoxicity MTS, solid tumors, Breast MX-1; conditions: 4-Parameter Curve Fit, NA = not active
[6] = system: MC116; test: Cytotoxicity MTS, leukemias/lymphomas, MC116; conditions: 4-Parameter Curve Fit, NA = not active, read-out: Cytotoxicity IC50 Lymphoma (undifferentiated) MC116
[7] = system: Hut 78; test: Cytotoxicity MTS, leukemias/lymphomas, Hut 78; conditions: 4-Parameter Curve Fit, NA = not active, read-out: Cytotoxicity IC50 Lymphoma (Cutaneous T cell) Hut 78
[8] = system: P388; test: Cytotoxicity of spisulosine analogs, P388 (after Berjeron et al); conditions: methodology after Berjeron et al, NA=not active, read-out: Cytotoxicity IC50 P388
[9] = system: MEL28; test: Cytotoxicity of spisulosine analogs, MEL28 (after Berjeron et al); conditions: methodology after Berjeron et al, NA=not active, read-out: Cytotoxicity IC50 MEL28
[10] = system: HT29; test: Cytotoxicity of spisulosine analogs, HT29 (after Berjeron et al); conditions: methodology after Berjeron et al, NA=not active, read-out: Cytotoxicity IC50 HT29
[11] = system: A549; test: Cytotoxicity of spisulosine analogs, A549 (after Berjeron et al); conditions: methodology after Berjeron et al, NA=not active, read-out: Cytotoxicity IC50 A549
[12] = system: DU145; test: Cytotoxicity of spisulosine analogs, DU145 (after Berjeron et al); conditions: methodology after Berjeron et al, NA=not active, read-out: Cytotoxicity IC50 DU145
[13] = system: 5637; test: Cytotoxicity MTS, solid tumors, Bladder 5637; conditions: 4-Parameter Curve Fit, NA = not active
[14] = system: OSA-FH; test: Cytotoxicity MTS, solid tumors, Osteosarcoma OSA-FH; conditions: 4-Parameter Curve Fit, NA = not active
[15] = system: SW 694; test: Cytotoxicity MTS, solid tumors, Fibrosarcoma SW 694; conditions: 4-Parameter Curve Fit, NA = not active
[16] = system: PANC-1; test: Cytotoxicity MTS, solid tumors, Pancreas PANC-1; conditions: 4-Parameter Curve Fit, NA = not active
[17] = system: HT-29; test: Cytotoxicity MTS, solid tumors, Colon HT-29; conditions: 4-Parameter Curve Fit, NA = not active
[18] = system: A549; test: Cytotoxicity MTS, solid tumors, NSCL A549; conditions: 4-Parameter Curve Fit, NA = not active
[19] = system: FADU; test: Cytotoxicity MTS, solid tumors, Pharynx FADU; conditions: 4-Parameter Curve Fit, NA = not active
[20] = system: LNCAP; test: Cytotoxicity MTS, solid tumors, Prostate LNCAP; conditions: 4-Parameter Curve Fit, NA = not active
[21] = system: PC-3; test: Cytotoxicity MTS, solid tumors, Prostate PC-3; conditions: 4-Parameter Curve Fit, NA = not active
[22] = system: DU-145; test: Cytotoxicity MTS, solid tumors, Prostate DU-145; conditions: 4-Parameter Curve Fit, NA = not active
[23] = system: CHSA; test: Cytotoxicity MTS, solid tumors, Chondrosarcoma CHSA; conditions: 4-Parameter Curve Fit, NA = not active
[24] = system: Mel-28; test: Cytotoxicity MTS, solid tumors, Melanoma Mel-28; conditions: 4-Parameter Curve Fit, NA = not active

SMILES: CCCCCCCCCCCCCCC(O)C(C)N (stereo not drawn) [drawing 128]
- pIC50 [1]: 4.58

SMILES: CCCCCCCCCCCCCCCC(=O)[C@H](C)N [drawing 118]
- pIC50 [2]: 4.92
- pIC50 [3]: 5.45
- pIC50 [4]: 6.79
- pIC50 [5]: 5.55

SMILES: CCCCCCCCCCCCCCCCCC(O)C(C)N (stereo not drawn)
- pIC50 [1]: 5.12
- pIC50 [6]: 4.96

SMILES: CCCCCCCCCCCCCCCC(O)C(N)CC (stereo not drawn) [drawing 127]
- pIC50 [1]: 7.42
- pIC50 [7]: 5.04

SMILES: CCCCCCCCCCCCCCCC(=O)[C@@H](N)CC [drawing 106]
- pIC50 ([8]; P388): 7.52
- pIC50 ([9]; MEL28): 6.52
- pIC50 ([10]; HT29): 7.52
- pIC50 ([11]; A549): 7.52
- pIC50 ([12]; DU145): 7.52

SMILES: CCCCCCCCCCCCCCCCC(=O)[C@H](C)N [drawing 119]
- pIC50 [5]: 4.83
- pIC50 [13]: 4.52
- pIC50 [14]: 4.83

SMILES: CCCCCCCCCCCCCCCCC[C@@H](O)[C@H](C)N [drawing 114]
- pIC50 [15]: 4.98
- pIC50 [16]: 6.14
- pIC50 [3]: 5.14
- pIC50 [13]: 5.20
- pIC50 [17]: 5.04
- pIC50 [18]: 5.01
- pIC50 [14]: 5.07
- pIC50 [19]: 7.09
- pIC50 [20]: 5.11
- pIC50 [21]: 7.31
- pIC50 [22]: 5.01
- pIC50 [23]: 5.80

SMILES: CCCCCCCCCCCCCCCC(=O)[C@H](C)N [drawing 102]
- pIC50 ([8]; P388): 7.50
- pIC50 ([9]; MEL28): 6.81
- pIC50 ([10]; HT29): 7.50
- pIC50 ([11]; A549): 6.81
- pIC50 ([12]; DU145): 7.50

SMILES: CCCCCCCCCCCCCC[C@@H](O)[C@H](C)N [drawing 101]
- pIC50 ([8]; P388): 6.79
- pIC50 ([9]; MEL28): 6.49
- pIC50 ([10]; HT29): 6.79
- pIC50 ([11]; A549): 6.79
- pIC50 ([12]; DU145): 6.79

SMILES: CCCCCCCCCCCCCCC[C@H](O)[C@@H](C)N [(2R,3S)-2-Amino-3-octadecanol]
- pIC50 ([8]; Mus musculus, P388, P388): 6.46
- pIC50 ([9]; Homo sapiens, SK-MEL-28, MEL28): 6.46
- pIC50 ([10]; Homo sapiens, HT-29, HT29): 6.46
- pIC50 ([11]; Homo sapiens, A549, A549): 6.46
- pIC50 ([12]; Homo sapiens, DU-145, DU145): 6.46

SMILES: CCCCCCCCCCCCCCC[C@H](O)[C@H](C)N [(2S,3S)-2-Amino-3-octadecanol]
- pIC50 ([8]; Mus musculus, P388, P388): 6.46
- pIC50 ([9]; Homo sapiens, SK-MEL-28, MEL28): 6.46
- pIC50 ([10]; Homo sapiens, HT-29, HT29): 6.46
- pIC50 ([11]; Homo sapiens, A549, A549): 6.46
- pIC50 ([12]; Homo sapiens, DU-145, DU145): 6.46

SMILES: CCCCCCCCCCCCCCCCCC(=O)[C@H](C)N [drawing 120]
- pIC50 [18]: 4.70
- pIC50 [19]: 4.84

SMILES: CCCCCCCCCCCCCCC[C@@H](O)[C@@H](N)CC [drawing 116]
- pIC50 [2]: 5.02
- pIC50 [15]: 5.12
- pIC50 [16]: 6.73
- pIC50 [3]: 5.14
- pIC50 [13]: 5.11
- pIC50 [17]: 5.04
- pIC50 [18]: 4.99
- pIC50 [14]: 5.07
- pIC50 [19]: 6.65
- pIC50 [20]: 5.20
- pIC50 [21]: 4.99
- pIC50 [22]: 7.12
- pIC50 [23]: 5.05
- pIC50 [24]: 5.03

SMILES: CCCCCCCCCCCCCC[C@@H](O)[C@H](C)N [drawing 115]
- pIC50 [15]: 5.00
- pIC50 [16]: 7.06
- pIC50 [13]: 7.44
- pIC50 [17]: 6.58
- pIC50 [18]: 5.00
- pIC50 [19]: 7.11
- pIC50 [20]: 7.15
- pIC50 [21]: 6.42
- pIC50 [22]: 6.70
- pIC50 [23]: 5.02
- pIC50 [24]: 4.99

SMILES: CCCCCCCCCCCCCCC[C@@H](O)[C@H](C)N(C)C
- pIC50 ([8]; P388): 6.50
- pIC50 ([9]; MEL28): 6.50
- pIC50 ([10]; HT29): 6.50
- pIC50 ([11]; A549): 6.50
- pIC50 ([12]; DU145): 6.50

SMILES: CCCCCCCCCCCCCCCC(O)C(N)CC (stereo not drawn) [drawing 79]
- pIC50 ([8]; P388): 6.48
- pIC50 ([9]; MEL28): 6.48
- pIC50 ([10]; HT29): 6.48
- pIC50 ([11]; A549): 6.48
- pIC50 ([12]; DU145): 6.48

SMILES: CCCCCCCCCCCCCCC[C@H](Cl)[C@H](C)N [(2S,3S)-2-Amino-3-chloro-octadecane]
- pIC50 ([8]; Mus musculus, P388, P388): 6.48
- pIC50 ([9]; Homo sapiens, SK-MEL-28, MEL28): 6.48
- pIC50 ([10]; Homo sapiens, HT-29, HT29): 6.48
- pIC50 ([11]; Homo sapiens, A549, A549): 6.48
- pIC50 ([12]; Homo sapiens, DU-145, DU145): 6.48

SMILES: CCCCCCCCCCCCCCCC[C@@H](O)[C@H](C)N [drawing 113]
- pIC50 [2]: 5.33
- pIC50 [15]: 5.19
- pIC50 [16]: 6.78
- pIC50 [3]: 6.79
- pIC50 [13]: 7.33
- pIC50 [17]: 7.19
- pIC50 [18]: 7.46
- pIC50 [14]: 6.74
- pIC50 [19]: 7.99
- pIC50 [20]: 7.35
- pIC50 [21]: 7.07
- pIC50 [22]: 7.13
- pIC50 [23]: 7.74
- pIC50 [24]: 5.14

SMILES: CCCCCCCCCCCCC[C@@H](O)[C@H](C)N [drawing 41, (2S,3R)-2-Amino-3-hexadecanol]
- pIC50 ([8]; Mus musculus, P388, P388): 6.41
- pIC50 ([9]; Homo sapiens, SK-MEL-28, MEL28): 6.43
- pIC50 ([10]; HT29): 6.41
- pIC50 ([11]; A549): 6.71
- pIC50 ([12]; Homo sapiens, DU-145, DU145): 6.71

SMILES: CCCCCCCCCCCCCCCCCC[C@@H](O)[C@H](C)N [drawing 52, (2S,3R)-2-Amino-3-heneicosanol]
- pIC50 ([8]; Mus musculus, P388, P388): 6.82
- pIC50 ([9]; Homo sapiens, SK-MEL-28, MEL28): 6.52
- pIC50 ([10]; HT29): 6.52
- pIC50 ([11]; A549): 6.52
- pIC50 ([12]; Homo sapiens, DU-145, DU145): 6.52

SMILES: CCCCCCCCCCCCCCC[C@@H](O)[C@H](C)N [drawing 46, Bis-((2S,3R)-2-ammonium-3-octadecanol) L-tartrate]
- pIC50 ([8]; Mus musculus, P388, P388): 7.56
- pIC50 ([9]; MEL28): 7.56
- pIC50 ([10]; Homo sapiens, HT-29, HT29): 7.56
- pIC50 ([11]; Homo sapiens, A549, A549): 7.56
- pIC50 ([12]; Homo sapiens, DU-145, DU145): 7.56

SMILES: CCCCCCCCCCCC[C@@H](O)[C@H](C)N [(2S,3R)-2-Amino-3-pentadecanol]
- pIC50 ([8]; Mus musculus, P388, P388): 6.39
- pIC50 ([9]; Homo sapiens, SK-MEL-28, MEL28): 5.69
- pIC50 ([10]; Homo sapiens, HT-29, HT29): 6.39
- pIC50 ([11]; Homo sapiens, A549, A549): 6.39
- pIC50 ([12]; Homo sapiens, DU-145, DU145): 6.39

SMILES: CCCCCCCCCCCCCCCC(=O)[C@@H](N)CC [drawing 121]
- pIC50 [4]: 4.22
- pIC50 [5]: 5.76
- pIC50 [13]: 5.80
- pIC50 [19]: 5.52

SMILES: CCCCCCCCCCCCCCCCCC(=O)[C@H](C)N [drawing 105]
- pIC50 ([8]; P388): 6.84
- pIC50 ([9]; MEL28): 6.54
- pIC50 ([10]; HT29): 6.84
- pIC50 ([11]; A549): 6.84
- pIC50 ([12]; DU145): 6.84

SMILES: CCCCCCCCCCCCCCCC[C@@H](O)[C@H](C)N [drawing 37, (2S,3R)-2-Amino-3-nonadecanol]
- pIC50 ([8]; Mus musculus, P388, P388): 7.48
- pIC50 ([9]; Homo sapiens, SK-MEL-28, MEL28): 7.48
- pIC50 ([10]; HT29): 7.48
- pIC50 ([11]; A549): 7.48
- pIC50 ([12]; Homo sapiens, DU-145, DU145): 7.48

SMILES: CCCCCCCCCCCCCCCCC(=O)[C@H](C)N [drawing 104]
- pIC50 ([8]; P388): 6.82
- pIC50 ([9]; MEL28): 6.52
- pIC50 ([10]; HT29): 6.82
- pIC50 ([11]; A549): 6.82
- pIC50 ([12]; DU145): 6.82

SMILES: CCCCCCCCCCCCCC[C@@H](O)[C@H](C)N [drawing 117]
- pIC50 [13]: 5.49
- pIC50 [18]: 4.31
- pIC50 [19]: 4.71
